Results from US20190231771A1, “METHODS FOR TREATMENT AND PREVENTION OF OPIOID INDUCED CONSTIPATION USING ORAL COMPOSITIONS OF METHYLNALTREXONE” (Salix Pharmaceuticals, Ltd., priority 2011, published 2019).

Experiments:
Format in all cases: in vivo, human
[1] = Study C: single and multiple dose pharmacokinetics of MNTX and metabolites, MNTX 450 mg PO x 7 days; settings: for bioavailability: oral, MNTX tablets 450 mg, cross-study AUCinf comparison; for bioavailability / half-life / AUC(0-inf) / AUC(0-t) / Cmax: 450 mg; for half-life / AUC(0-inf) / AUC(0-t) / Cmax: po; for AUC(0-t): read-out: AUC0-24; for Cmax: read-out: Cmax
Experimental: (§1) Presented herein is a clinical pharmacokinetics study, Study C, as well as Studies A and B. Study A investigated the single and multiple dose pharmacokinetics of methylnaltrexone (MNTX) and its metabolites (M2: methylnaltrexone sulfate; M4: 6α-methylnaltrexol; and M5: 6β-methylnaltrexol) following the subcutaneous administration of 12 mg methylnaltrexone. In Study B, the single and multiple dose pharmacokinetics of methylnaltrexone (MNTX) and its metabolites (M2, M4, and M5) were examined following a 20-minute short intravenous infusion of 24 mg of methylnaltrexone (MNTX).
In addition, the urinary elimination of MNTX was characterized.
(§2) Pharmacokinetic parameters included Cmax, AUCt, AUCinf, tmax, t1/2, % Re24, accumulation factor (R) as defined below and metabolite/parent drug ratio.
(§3) R=Accumulation Factor(based on AUC0-24(ng·h/mL):Day 7 AUC AUC0-24/Day 1 AUC0-24
(§4) Metabolite-Parent Drug ratio(based on ng·h/mL)(%)=100*(Metabolite AUC24/MNTX AUC24)
(§5) Note: AUCinf was used in place of AUC AUC0-24 for R and Metabolite-Parent Drug ratio computations following IV administration.

[2] = Study A: single and multiple dose pharmacokinetics after subcutaneous 12 mg methylnaltrexone; settings: for AUC(0-t) / Cmax: sc, 12 mg; for AUC(0-t): read-out: AUC0-24; for Cmax: read-out: Cmax
Experimental: as §1, §2, §3, §4, §5

[3] = tested on: subjects with chronic non-malignant pain who have Opioid Induced Constipation (OIC); assay: Phase 3 randomized double-blind placebo-controlled study of Oral Methylnaltrexone for OIC
Experimental: A phase 3, multicenter, randomized, double-blind, placebo-controlled, parallel-group study of OM for the treatment of OIC in approximately 802 subjects with chronic non-malignant pain was conducted.
Constipation due to opioid use during the screening period: Constipation is defined as <3 Rescue-Free Bowel Movements (RFBMs) per week on average (no laxative use within 24 hours prior to bowel movement) that were associated with 1 or more of the following (based on subject's diary report): • a. A Bristol Stool Form Scale type 1 or 2 for at least 25% of the rescue-free bowel movements. • b. Straining during at least 25% of the rescue-free bowel movements. • c. A sensation of incomplete evacuation after at least 25% of the rescue-free bowel movements.
Subjects who remained eligible at the baseline visit (day 1) were randomly assigned to either OM tablet formulation 150 mg, 300 mg, 450 mg, or placebo initially in a 1:1:1:1 allocation ratio. Subjects were required to take three tablets per day, first thing in the morning on an empty stomach (prior to breakfast). Subjects were instructed to swallow the tablets whole and never to chew, divide, or crush them and wait at least one half hour before ingesting any food. Subjects participated in the study for up to 84 days. The first 28 days were once daily dosing; the remaining 56 days were dosing as needed (PRN). Dosing remained double-blind throughout the 12 week period (84 days). The 84 day treatment period were followed by a 14-day post-treatment follow-up period (±2 days). Enrollment continued until a total of approximately 802 subjects have been randomized and dosed.
At the baseline visit, subjects were randomly assigned to either OM or placebo. Subjects who met all inclusion and no exclusion criteria at the baseline visit (day 1) received study medication. All doses were to be taken in the morning prior to breakfast [The first dose administered at the baseline visit could have been taken after Noon (12:00 pm)] and subjects were instructed to wait at least one half hour before ingesting any food. Subjects participated in the study for up to 84 days: the first 28 days were double-blind once daily dosing; the remaining 56 days were double-blind PRN dosing.
The primary efficacy endpoint of this Phase 3 study was the average proportion of rescue-free laxation responses per subject within 4 hours of all doses during the first four weeks of dosing. The key secondary efficacy endpoints in hierarchical order were:
1. Change in weekly number of RFBM from baseline during Weeks 1 to 4
2. Response (responder/non-responder) to study drug during Weeks 1 to 4, where responder was defined as having ≥3 RFBM/week, with at least 1 RFBM/week increase over baseline, for at least 3 out of the first 4 weeks.
The primary efficacy endpoint was the average proportion of rescue-free laxation responses per subject within 4 hours of all doses during the first 4 weeks of dosing.
The two key secondary efficacy endpoints in hierarchical order were: • 1. Change in weekly number of RFBMs from baseline over the entire first 4 weeks (28 days) of dosing. • 2. Response (responder/non-responder) to study drug during Weeks 1 to 4, where responder is defined as having […], with at least 1 RFBM/week increase over baseline, for at least 3 out of the first 4 weeks. […]

[4] = human, plasma, 450 mg Tablets oral, Day 1, mean
[5] = human, plasma, 450 mg Tablets oral, Day 7, mean
[6] = human, plasma, 12 mg SC Injection, Day 1, mean
[7] = human, plasma, 12 mg SC Injection, Day 7, mean
[8] = 150 mg, 300 mg and 450 mg daily oral vs placebo

For C[N@+]1(CC2CC2)CC[C@]23c4c5ccc(O)c4O[C@H]2C(=O)CC[C@@]3(O)[C@H]1C5.[Br-] [MNTX, (R)—N-(cyclopropylmethyl) noroxymorphone methobromide], the “R (PO), accumulation factor” value ([1]; 450 mg Tablets oral, AUC0-24 on Day 7/AUC0-24 on Day 1) was 1.20, the bioavailability ([1]; human, plasma, multiple dose, read-out: bioavailability relative to IV multiple dose administration) was 5.8% and the bioavailability ([1]; human, plasma, multiple dose, read-out: bioavailability relative to SC multiple dose administration) was 4.8%. For the same compound, the bioavailability ([1]; human, plasma, single dose, read-out: absolute bioavailability (relative to IV infusion)) was 4.24%, the bioavailability ([1]; human, plasma, single dose, read-out: bioavailability relative to SC injection) was 3.7% and the half-life ([1]; human, plasma, 450 mg Tablets oral, Day 1, harmonic mean) was 8.8 h. The AUC(0-inf) [1, 4] was 315 ng·h/mL, the AUC(0-t) [1, 4] was 280 ng·h/mL and the Cmax [1, 4] was 47 ng/mL. It also gave a half-life ([1]; human, plasma, 450 mg Tablets oral, Day 7, harmonic mean) of 19.2 h, an AUC(0-inf) [1, 5] of 404 ng·h/mL and an AUC(0-t) [1, 5] of 309 ng·h/mL. The Cmax [1, 5] was 45.5 ng/mL, the Tmax ([1]; human, plasma, 450 mg Tablets oral, Day 1, median, read-out: Tmax) was 2 h and the AUCinf ([2]; 12 mg SC Injection, Day 7, mean) was 223.0 ng·h/mL. The “R (SC), accumulation factor” value ([2]; 12 mg SC Injection, AUC0-24 on Day 7/AUC0-24 on Day 1) was 1.05, the AUC(0-t) [2, 6] was 218 ng·h/mL and the Cmax [2, 6] was 140 ng/mL. For the same compound, the AUC(0-t) [2, 7] was 223 ng·h/mL, the Cmax [2, 7] was 119 ng/mL and the bioavailability ([2]; human, plasma, subcutaneous, 12 mg SC vs 24 mg IV infusion, cross-study, read-out: bioavailability of subcutaneous injection relative to short-term infusion) was 112%. It also gave an AUC(0-inf) [2, 6] of 223 ng·h/mL, a Tmax ([2]; human, plasma, 12 mg SC Injection, Day 1, median, read-out: Tmax) of 0.25 h and a half-life ([2]; human, plasma, 12 mg SC Injection, day not given, harmonic mean) of 5.33 h. The “primary efficacy endpoint: average proportion of rescue free bowel movements per subject within 4 hours of all doses during the first 4 weeks of dosing” value [3, 8] was “demonstrate efficacy”, the “secondary efficacy endpoints: change in weekly number of RFBMs from baseline weeks 1-4; response to study drug” value [3, 8] was “further demonstrate efficacy” and the adverse events ([3]; dosages of 150 mg, 300 mg and 450 mg) was “did not result in adverse events”. For the same compound, the “proportion of subjects with rescue free bowel movements within 4 hours of the first dose” value ([3]; first dose of study drug) was “further confirmed efficacy” and the “laxation effects, fasted compared to non-fasted subjects” value ([3]; phase 3 study, following the first dose of study drug) was “increased in fasted subjects compared to non-fasted subjects”.
